From PubChem BioAssay AID1963441 (Molecular Pharmacology Branch, DTP, NCI, 2024)

Test system: NCI-H1876 complex spheroid growth, % test/control
Experiment: Anticancer human tumor NCI-H1876 cell line growth inhibition [Asc];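 note: compound exposure lasted 7 days starting three days after seeding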;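 for viability, T/C: 100% = DMSO vehicle control wells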
Settings: for IC50: curve of first compound; for viability, T/C: stronger effect = lower value
Summary of the method: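 Tumor cells were grown as multicellular spheroids with stromal HUVEC and mesenchymal stem cells and treated singly or in combination. Concentrations fell in half-log steps from the clinical Cmax, or from 10 microM where none was known.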

[1] = second compound 0.00316 µM, first compound 0.0316 µM
[2] = second compound 0.00316 µM, first compound 0.1 µM
[3] = second compound 0.01 µM, first compound 0.0316 µM
[4] = second compound 0.01 µM, first compound 0.1 µM
[5] = second compound 0.0316 µM, first compound 0.0316 µM
[6] = second compound 0.0316 µM, first compound 0.1 µM
[7] = second compound 0.1 µM, first compound 0.0316 µM
[8] = second compound 0.1 µM, first compound 0.1 µM
[9] = second compound 0.316 µM, first compound 0.0316 µM
[10] = second compound 0.316 µM, first compound 0.1 µM
[11] = second compound 1 µM, first compound 0.0316 µM
[12] = second compound 1 µM, first compound 0.1 µM

Compound: Cn1ncnc1[C@H]1c2n[nH]c(=O)c3cc(F)cc(c23)N[C@@H]1c1ccc(F)cc1 + CNC(C)C(=O)NC1CN(S(=O)(=O)c2cccc(S(=O)(=O)N3CCC4CCC(C(=O)NC(c5ccccc5)c5ccccc5)N4C(=O)C(NC(=O)C(C)NC)C3)c2)CCC2CCC(C(=O)NC(c3ccccc3)c3ccccc3)N2C1=O
- IC50 (second compound 0.00316 µM): > 0.1 µM
- IC50 (second compound 0.01 µM): > 0.1 µM
- IC50 (second compound 0.0316 µM): > 0.1 µM
- IC50 (second compound 0.1 µM): > 0.1 µM
- IC50 (second compound 0.316 µM): > 0.1 µM
- IC50 (second compound 1 µM): > 0.1 µM
- viability, T/C (second compound 0.00316 µM, first compound 0.000316 µM): 72.3%
- viability, T/C (second compound 0.00316 µM, first compound 0.001 µM): 63.5%
- viability, T/C (second compound 0.00316 µM, first compound 0.00316 µM): 68.2%
- viability, T/C (second compound 0.00316 µM, first compound 0.01 µM): 55.5%
- viability, T/C [1]: 51.2%
- viability, T/C [2]: 54.3%
- viability, T/C (second compound 0.01 µM, first compound 0.000316 µM): 92.8%
- viability, T/C (second compound 0.01 µM, first compound 0.001 µM): 103%
- viability, T/C (second compound 0.01 µM, first compound 0.00316 µM): 87.6%
- viability, T/C (second compound 0.01 µM, first compound 0.01 µM): 95.2%
- viability, T/C [3]: 96.5%
- viability, T/C [4]: 95.8%
- viability, T/C (second compound 0.0316 µM, first compound 0.000316 µM): 94.8%
- viability, T/C (second compound 0.0316 µM, first compound 0.001 µM): 99%
- viability, T/C (second compound 0.0316 µM, first compound 0.00316 µM): 104%
- viability, T/C (second compound 0.0316 µM, first compound 0.01 µM): 112%
- viability, T/C [5]: 109%
- viability, T/C [6]: 103%
- viability, T/C (second compound 0.1 µM, first compound 0.000316 µM): 105%
- viability, T/C (second compound 0.1 µM, first compound 0.001 µM): 102%
- viability, T/C (second compound 0.1 µM, first compound 0.00316 µM): 97.3%
- viability, T/C (second compound 0.1 µM, first compound 0.01 µM): 91.5%
- viability, T/C [7]: 97.4%
- viability, T/C [8]: 102%
- viability, T/C (second compound 0.316 µM, first compound 0.000316 µM): 97.7%
- viability, T/C (second compound 0.316 µM, first compound 0.001 µM): 96.7%
- viability, T/C (second compound 0.316 µM, first compound 0.00316 µM): 93.4%
- viability, T/C (second compound 0.316 µM, first compound 0.01 µM): 110%
- viability, T/C [9]: 115%
- viability, T/C [10]: 97.3%
- viability, T/C (second compound 1 µM, first compound 0.000316 µM): 114%
- viability, T/C (second compound 1 µM, first compound 0.001 µM): 99.1%
- viability, T/C (second compound 1 µM, first compound 0.00316 µM): 90.1%
- viability, T/C (second compound 1 µM, first compound 0.01 µM): 116%
- viability, T/C [11]: 103%
- viability, T/C [12]: 104%

Compound: O=C(c1cc(Cc2n[nH]c(=O)c3ccccc23)ccc1F)N1CCN(C(=O)C2CC2)CC1 + CNC(C)C(=O)NC1CN(S(=O)(=O)c2cccc(S(=O)(=O)N3CCC4CCC(C(=O)NC(c5ccccc5)c5ccccc5)N4C(=O)C(NC(=O)C(C)NC)C3)c2)CCC2CCC(C(=O)NC(c3ccccc3)c3ccccc3)N2C1=O
- IC50 (second compound 0.00316 µM): 4.73 µM
- IC50 (second compound 0.01 µM): > 10 µM
- IC50 (second compound 0.0316 µM): > 10 µM
- IC50 (second compound 0.1 µM): > 10 µM
- IC50 (second compound 0.316 µM): > 10 µM
- IC50 (second compound 1 µM): > 10 µM
- viability, T/C [1]: 67%
- viability, T/C [2]: 61.7%
- viability, T/C (second compound 0.00316 µM, first compound 0.316 µM): 65.1%
- viability, T/C (second compound 0.00316 µM, first compound 1 µM): 66.5%
- viability, T/C (second compound 0.00316 µM, first compound 3.16 µM): 60.6%
- viability, T/C (second compound 0.00316 µM, first compound 10 µM): 29.6%
- viability, T/C [3]: 96%
- viability, T/C [4]: 93%
- viability, T/C (second compound 0.01 µM, first compound 0.316 µM): 105%
- viability, T/C (second compound 0.01 µM, first compound 1 µM): 101%
- viability, T/C (second compound 0.01 µM, first compound 3.16 µM): 96.5%
- viability, T/C (second compound 0.01 µM, first compound 10 µM): 66.3%
- viability, T/C [5]: 98.5%
- viability, T/C [6]: 93.7%
- viability, T/C (second compound 0.0316 µM, first compound 0.316 µM): 92%
- viability, T/C (second compound 0.0316 µM, first compound 1 µM): 99.9%
- viability, T/C (second compound 0.0316 µM, first compound 3.16 µM): 97.8%
- viability, T/C (second compound 0.0316 µM, first compound 10 µM): 69.8%
- viability, T/C [7]: 89.5%
- viability, T/C [8]: 97.6%
- viability, T/C (second compound 0.1 µM, first compound 0.316 µM): 103%
- viability, T/C (second compound 0.1 µM, first compound 1 µM): 105%
- viability, T/C (second compound 0.1 µM, first compound 3.16 µM): 95.6%
- viability, T/C (second compound 0.1 µM, first compound 10 µM): 62.4%
- viability, T/C [9]: 94.2%
- viability, T/C [10]: 99.9%
- viability, T/C (second compound 0.316 µM, first compound 0.316 µM): 116%
- viability, T/C (second compound 0.316 µM, first compound 1 µM): 111%
- viability, T/C (second compound 0.316 µM, first compound 3.16 µM): 104%
- viability, T/C (second compound 0.316 µM, first compound 10 µM): 66.7%
- viability, T/C [11]: 101%
- viability, T/C [12]: 91.2%
- viability, T/C (second compound 1 µM, first compound 0.316 µM): 97%
- viability, T/C (second compound 1 µM, first compound 1 µM): 104%
- viability, T/C (second compound 1 µM, first compound 3.16 µM): 101%
- viability, T/C (second compound 1 µM, first compound 10 µM): 56.6%
